Test results: patent US8461389B2, “Psycho-pharmaceuticals” (University College Dublin, National University of Ireland, …, priority 2008, dated 2013)

What was measured:
rat pyloric muscle = assay: Electrical field stimulation (EFS)-mediated relaxation of isolated pyloric muscle; details: 25 μM Captodiamine; 10 min treatment, 10 μM-100 μM tested
Procedure: Inhibition of pyloric relaxation by administration of captodiamine was performed as described in Kashyap P., Micci M., Pasricha S., Pasricha P., The D2/D3 Agonist PD 128907 (R-(+)-trans-3,4a,10b-Tetrahydro-4-Propyl-2H,5H-[1]Benzopyrano[4,3-b]-1,4-Oxazin-9-ol) Inhibits Stimulated Pyloric Relaxation and Spontaneous Gastric Emptying, 2007, Digestive Diseases and Sciences.
Male Wistar rats were killed by cervical dislocation and decapitation. The stomach was removed and placed in oxygenated Krebs buffer (118 mM NaCl, 4.7 mM KCl, 1.2 mM KH2PO4, 1.2 mM MgSO4, 4.2 mM NaHCO3, 2 mM CaCl2, 10 mM glucose, 200 μM sulphinpyrazone and 10 mM Hepes, pH 7.4). […] The tissue was cut longitudinally along the mesenteric border and trimmed to 2 mm in width. At one end, the tissue was mounted onto an L-shaped electrode and placed into a 25 ml chamber containing Krebs buffer, maintained at 37° C. and continuously bubbled with 95% O2/5% CO2. The other end of the tissue was attached to an isometric force transducer using string sutured to tissue. Tension was monitored, recorded and analyzed by a digital recording device (PowerLab and Chart 5, ADInstruments). […] Spontaneous contraction of the pyloric strips were observed and recorded following the equilibration phase. […] The weight of the tissue was measured at the end of each session. […]

[1] = system: GDNF (Glial cell derived neurotrophic factor); assay: GDNF levels in brain regions by ELISA after sub-chronic administration; assay type: in vivo, mice; details: sub-chronic 7 day treatment, FIG. 9D
Procedure: Neurotrophic factor concentration was determined by using an ELISA purchased from Promega Inc;
The Experimental protocol employed in the behavioural evaluation of Captodiamine is set out as follows: Three separate cohorts of C57B16 mice were employed in the behavioural evaluation of Captodiamine (see FIG. 7). Cohort 1 was used to evaluate the drug effect on prepulse inhibition, spatial learning, open-field and novel object recognition. Cohort 2 was used to evaluate drug effects on the forced swim test and the elevated X-maze. The behavioural tests were administered in sequence as per day number indicated in the bar of FIG. 7. The drug was administered by the intraperitoneal route and on the day of training the drug was administered after the behavioural analysis. […]
The Structure (FIG. 9A), receptor affinity (FIG. 9B), pharmacokinetics (FIG. 9C) and growth factor modulation (FIG. 9D) of Captodiamine are provided. […] Blood levels of Captodiamine were determined by GC mass spectroscopy. […] Values were analysed using a Student t-test and those with a p value<0.05 were accepted as significant and are indicated with an asterisk.

C57B16 mice = assay: Water maze spatial learning; assay type: in vivo; details: i.p. once daily for 7 days; FIG. 6
Procedure: The test apparatus consists of a large circular pool (1 m diameter, 80 cm high, temperature 26° C.) with a platform (11 cm diameter) submerged 1.5 cm below the surface. Both the pool and the platform were constructed of black polyvinyl plastic, which offered no intra-maze cues. The experimental room contained several extra-maze visual cues. During training the platform was hidden in the same quadrant 30 cm away from the edge of the maze. There were five trials, each of them beginning with the rat facing the wall of the maze in one of three different locations. The time taken for the rat to find the platform within a 90 s period was recorded. Probe trials where the platform was removed from the maze and the time the animal spent in the target quadrant were also performed. […]
Finally, drugs inducing neurobehavioural profile are evaluated in the water maze spatial learning paradigm, a robust task of information acquisition and consolidation—a measure of pro-cognitive action. […]
The influence of Captodiamine on open-field behaviour (FIG. 3), novel object recognition (FIG. 8), forced swim test (FIGS. 10A and 10B) and water maze spatial learning (FIG. 6). […] Values were analysed using a two way ANOVA and Student t-test and those with a p values<0.05 were accepted as significant and where appropriate are indicated with an asterisk.

Sigma 1 receptor = molecular target: T1, Sigma 1 receptor (Homo sapiens, UniProt Q99720); assay: Novascreen receptor affinity screen (competition with reference ligand), Sigma 1; assay type: binding; details: 1 μM Captodiamine competing with a reference ligand; read-out: percent target inhibition, Sigma 1 receptor
T1 construct: Novascreen (contract screen)
T1 sequence (Q99720 whole entry, species assumed): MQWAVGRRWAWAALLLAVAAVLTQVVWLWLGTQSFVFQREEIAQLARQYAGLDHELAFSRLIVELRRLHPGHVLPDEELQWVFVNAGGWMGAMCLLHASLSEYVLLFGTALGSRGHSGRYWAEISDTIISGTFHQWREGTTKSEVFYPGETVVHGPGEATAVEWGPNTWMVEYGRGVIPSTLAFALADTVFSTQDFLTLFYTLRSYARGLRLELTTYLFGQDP
Procedure: The Structure (FIG. 9A), receptor affinity (FIG. 9B), pharmacokinetics (FIG. 9C) and growth factor modulation (FIG. 9D) of Captodiamine are provided. Analysis of receptor affinities was performed by Novascreen™ and those displacing >20% of the natural ligand are indicated by the filled boxes. Blood levels of Captodiamine were determined by GC mass spectroscopy. In separate samples taken from a cannulated jugular at increasing time intervals following a single intraperitoneal injection of tha drug (5 mg/kg). Growth factor analysis was performed using tissue homogenates and ELISA assays specific for each growth factor (Promega). Values were analysed using a Student t-test and those with a p value<0.05 were accepted as significant and are indicated with an asterisk.
The higher the target inhibition value, the greater the affinity Captodiamine has for this particular receptor as it displaces a greater proportion of the reference ligand. This assay is an automated high throughput assay performed on cell lines that express only one type of receptor and was carried out by Novascreen (www.novascreen.com). Receptor affinity is a good starting point for determining the mechanism of action for a particular compound.

CCCCSc1ccc(C(SCCN(C)C)c2ccccc2)cc1 (centres unmarked) [Captodiamine, 2-[(4-butylsulfanylphenyl)-phenyl-methyl]sulfanyl-N,N-dimethyl-ethanamin]
effect on EFS-mediated relaxation of the rat pyloric muscle (rat pyloric muscle): attenuation of the EFS-mediatated relaxation
GDNF expression levels, hypothalamus [1]: but not in either the hippocampus or the hypothalamus
GDNF expression levels, prefrontal cortex [1]: significantly decreased
water maze spatial learning task performance (C57B16 mice): significant pro-cognitive action
inhibition at 1 µM (Sigma 1 receptor): > 90%
